Results from PMC9516332 (Frontiers in Oncology, 2022).
Where two headings read alike, the source gives them in different places.

Legend:
[1] = biological target: panel of 255 wild-type kinases (Homo sapiens, UniProt O00311); assay: Kinase panel profiling at 1 µmol/L (MSA or IMAP), percentage inhibition; type: biochemical; conditions: CDC7/ASK kinase assay; 1 µmol/L single concentration; read-out: %-inhibition CDC7/ASK
[2] = biological target: panel of 255 wild-type kinases (Homo sapiens, UniProt P42684); assay: as above; type: biochemical; conditions: ARG kinase assay; 1 µmol/L single concentration; read-out: %-inhibition ARG
AP-1060 (ETV6-NTRK3) = assay: Cell viability assay; conditions: read-out: IC50 in cell proliferation assay
134 cancer cell lines = assay: Cell viability assay (ATPlite, 72 hours), IC50 on cancer cell line panel

Cn1cc(-c2cc3c(N4CCN(c5ncc([C@@](C)(N)c6ccc(F)cc6)cn5)CC4)ncnn3c2)cn1 [avapritinib]
inhibition at 1 µM [1]: 0.0396%
inhibition at 1 µM [2]: 47%
IC50 (AP-1060 (ETV6-NTRK3)): 3.46 µM
IC50 (134 cancer cell lines; HEC-6, read-out: IC50 in cell proliferation assay): 20.9 µM
IC50 (134 cancer cell lines; Homo sapiens, 769-P, read-out: IC50 in cell proliferation assay): 3 µM
IC50 (134 cancer cell lines; Homo sapiens, 786-0, read-out: IC50 in cell proliferation assay): 11.8 µM
IC50 (134 cancer cell lines; Homo sapiens, A 172, read-out: IC50 in cell proliferation assay): 5.91 µM
IC50 (134 cancer cell lines; Homo sapiens, A204, read-out: IC50 in cell proliferation assay): 0.171 µM
IC50 (134 cancer cell lines; Homo sapiens, A498, read-out: IC50 in cell proliferation assay): 15.4 µM
IC50 (134 cancer cell lines; Homo sapiens, A549, read-out: IC50 in cell proliferation assay): 20.5 µM
IC50 (134 cancer cell lines; Homo sapiens, A704, read-out: IC50 in cell proliferation assay): 22.7 µM
IC50 (134 cancer cell lines; Homo sapiens, A-375, read-out: IC50 in cell proliferation assay): 17.8 µM
IC50 (134 cancer cell lines; Homo sapiens, A-427, read-out: IC50 in cell proliferation assay): 8.02 µM
IC50 (134 cancer cell lines; Homo sapiens, ACHN, read-out: IC50 in cell proliferation assay): 14.8 µM
IC50 (134 cancer cell lines; Homo sapiens, AN3-CA, read-out: IC50 in cell proliferation assay): 18.1 µM
IC50 (134 cancer cell lines; Homo sapiens, ASPC1, read-out: IC50 in cell proliferation assay): > 31.6 µM
IC50 (134 cancer cell lines; Homo sapiens, AU565, read-out: IC50 in cell proliferation assay): 10.1 µM
IC50 (134 cancer cell lines; Homo sapiens, BT-20, read-out: IC50 in cell proliferation assay): 27.7 µM
IC50 (134 cancer cell lines; Homo sapiens, BT-474, read-out: IC50 in cell proliferation assay): 7.71 µM
IC50 (134 cancer cell lines; Homo sapiens, BT-549, read-out: IC50 in cell proliferation assay): 5.18 µM
IC50 (134 cancer cell lines; Homo sapiens, BXPC-3, read-out: IC50 in cell proliferation assay): 0.292 µM
IC50 (134 cancer cell lines; Homo sapiens, C-33-A, read-out: IC50 in cell proliferation assay): 4.64 µM
IC50 (134 cancer cell lines; Homo sapiens, CAL-27, read-out: IC50 in cell proliferation assay): 11 µM
IC50 (134 cancer cell lines; Homo sapiens, CCF-STTG1, read-out: IC50 in cell proliferation assay): 5.69 µM
IC50 (134 cancer cell lines; Homo sapiens, CCRF-CEM, read-out: IC50 in cell proliferation assay): 8.33 µM
IC50 (134 cancer cell lines; Homo sapiens, COLO 205, read-out: IC50 in cell proliferation assay): 10.7 µM
IC50 (134 cancer cell lines; Homo sapiens, COLO-829, read-out: IC50 in cell proliferation assay): 10.1 µM
IC50 (134 cancer cell lines; Homo sapiens, DLD-1, read-out: IC50 in cell proliferation assay): 15.2 µM
IC50 (134 cancer cell lines; Homo sapiens, DU-145, read-out: IC50 in cell proliferation assay): 9.13 µM
IC50 (134 cancer cell lines; Homo sapiens, DU-4475, read-out: IC50 in cell proliferation assay): 7.09 µM
IC50 (134 cancer cell lines; Homo sapiens, Daoy, read-out: IC50 in cell proliferation assay): 27.8 µM
IC50 (134 cancer cell lines; Homo sapiens, DoTc2-4510, read-out: IC50 in cell proliferation assay): 16.3 µM
IC50 (134 cancer cell lines; Homo sapiens, EOL1, read-out: IC50 in cell proliferation assay): 0.000567 µM
IC50 (134 cancer cell lines; Homo sapiens, FaDu, read-out: IC50 in cell proliferation assay): 9.3 µM
IC50 (134 cancer cell lines; Homo sapiens, G-361, read-out: IC50 in cell proliferation assay): 9.28 µM
IC50 (134 cancer cell lines; Homo sapiens, HCC827, read-out: IC50 in cell proliferation assay): 14 µM
IC50 (134 cancer cell lines; Homo sapiens, HCC4006, read-out: IC50 in cell proliferation assay): 8.01 µM
IC50 (134 cancer cell lines; Homo sapiens, HCT-15, read-out: IC50 in cell proliferation assay): 6.36 µM
IC50 (134 cancer cell lines; Homo sapiens, HCT-116, read-out: IC50 in cell proliferation assay): 8.76 µM
IC50 (134 cancer cell lines; Homo sapiens, HEC-1, read-out: IC50 in cell proliferation assay): 17 µM
IC50 (134 cancer cell lines; Homo sapiens, HEC-1B, read-out: IC50 in cell proliferation assay): 8.74 µM
IC50 (134 cancer cell lines; Homo sapiens, HL-60, read-out: IC50 in cell proliferation assay): 5.2 µM
IC50 (134 cancer cell lines; Homo sapiens, HT, read-out: IC50 in cell proliferation assay): 22.9 µM
IC50 (134 cancer cell lines; Homo sapiens, HT-1080, read-out: IC50 in cell proliferation assay): 9.14 µM
IC50 (134 cancer cell lines; Homo sapiens, Hs746T, read-out: IC50 in cell proliferation assay): 1.81 µM
IC50 (134 cancer cell lines; Homo sapiens, Hs-578T, read-out: IC50 in cell proliferation assay): 16.8 µM
IC50 (134 cancer cell lines; Homo sapiens, HuTu80, read-out: IC50 in cell proliferation assay): 5.13 µM
IC50 (134 cancer cell lines; Homo sapiens, J82, read-out: IC50 in cell proliferation assay): 24.4 µM
IC50 (134 cancer cell lines; Homo sapiens, Jurkat E6.1, read-out: IC50 in cell proliferation assay): 4.07 µM
IC50 (134 cancer cell lines; Homo sapiens, K562, read-out: IC50 in cell proliferation assay): 6.03 µM
IC50 (134 cancer cell lines; Homo sapiens, KATO III, read-out: IC50 in cell proliferation assay): 6.66 µM
IC50 (134 cancer cell lines; Homo sapiens, KG-1, read-out: IC50 in cell proliferation assay): 1.92 µM
IC50 (134 cancer cell lines; Homo sapiens, KLE, read-out: IC50 in cell proliferation assay): 5.61 µM
IC50 (134 cancer cell lines; Homo sapiens, KMS-11, read-out: IC50 in cell proliferation assay): 6.59 µM
IC50 (134 cancer cell lines; Homo sapiens, KU812, read-out: IC50 in cell proliferation assay): 3.11 µM
IC50 (134 cancer cell lines; Homo sapiens, Kasumi 1, read-out: IC50 in cell proliferation assay): 0.075 µM
IC50 (134 cancer cell lines; Homo sapiens, LC-2-ad, read-out: IC50 in cell proliferation assay): 4.91 µM
IC50 (134 cancer cell lines; Homo sapiens, LNCaP-Clone-FGC, read-out: IC50 in cell proliferation assay): 16 µM
IC50 (134 cancer cell lines; Homo sapiens, LS174T, read-out: IC50 in cell proliferation assay): 6.55 µM
IC50 (134 cancer cell lines; Homo sapiens, LS-411N, read-out: IC50 in cell proliferation assay): 10.8 µM
IC50 (134 cancer cell lines; Homo sapiens, LoVo, read-out: IC50 in cell proliferation assay): 6.42 µM
IC50 (134 cancer cell lines; Homo sapiens, MCF7, read-out: IC50 in cell proliferation assay): 17.3 µM
IC50 (134 cancer cell lines; Homo sapiens, MDA-MB-231, read-out: IC50 in cell proliferation assay): 8.5 µM
IC50 (134 cancer cell lines; Homo sapiens, MDA-MB-453, read-out: IC50 in cell proliferation assay): 1.08 µM
IC50 (134 cancer cell lines; Homo sapiens, MDA-MB-468, read-out: IC50 in cell proliferation assay): 12.6 µM
IC50 (134 cancer cell lines; Homo sapiens, MG-63, read-out: IC50 in cell proliferation assay): 11.1 µM
IC50 (134 cancer cell lines; Homo sapiens, MIA PaCa-2, read-out: IC50 in cell proliferation assay): 11 µM
IC50 (134 cancer cell lines; Homo sapiens, MKN-45, read-out: IC50 in cell proliferation assay): 5.03 µM
IC50 (134 cancer cell lines; Homo sapiens, MOLM-13, read-out: IC50 in cell proliferation assay): 0.465 µM
IC50 (134 cancer cell lines; Homo sapiens, MOLT-4, read-out: IC50 in cell proliferation assay): 6.63 µM
IC50 (134 cancer cell lines; Homo sapiens, MV4-11, read-out: IC50 in cell proliferation assay): 0.47 µM
IC50 (134 cancer cell lines; Homo sapiens, MeWo, read-out: IC50 in cell proliferation assay): > 31.6 µM
IC50 (134 cancer cell lines; Homo sapiens, NCCIT, read-out: IC50 in cell proliferation assay): 3.52 µM
IC50 (134 cancer cell lines; Homo sapiens, NCI-H82, read-out: IC50 in cell proliferation assay): 2.42 µM
IC50 (134 cancer cell lines; Homo sapiens, NCI-H460, read-out: IC50 in cell proliferation assay): 16 µM
IC50 (134 cancer cell lines; Homo sapiens, NCI-H661, read-out: IC50 in cell proliferation assay): 1.66 µM
IC50 (134 cancer cell lines; Homo sapiens, NCI-H716, read-out: IC50 in cell proliferation assay): 6.81 µM
IC50 (134 cancer cell lines; Homo sapiens, NCI-H1650, read-out: IC50 in cell proliferation assay): 19.6 µM
IC50 (134 cancer cell lines; Homo sapiens, NCI-H1975, read-out: IC50 in cell proliferation assay): 11.1 µM
IC50 (134 cancer cell lines; Homo sapiens, NCI-H2228, read-out: IC50 in cell proliferation assay): 9.99 µM
IC50 (134 cancer cell lines; Homo sapiens, OVCAR-3, read-out: IC50 in cell proliferation assay): 22.1 µM
IC50 (134 cancer cell lines; Homo sapiens, PFSK-1, read-out: IC50 in cell proliferation assay): 13.8 µM
IC50 (134 cancer cell lines; Homo sapiens, RL95-2, read-out: IC50 in cell proliferation assay): 28.3 µM
IC50 (134 cancer cell lines; Homo sapiens, RPMI-7951, read-out: IC50 in cell proliferation assay): 13.5 µM
IC50 (134 cancer cell lines; Homo sapiens, RS4-11, read-out: IC50 in cell proliferation assay): 21 µM
IC50 (134 cancer cell lines; Homo sapiens, Rec1, read-out: IC50 in cell proliferation assay): 28.9 µM
IC50 (134 cancer cell lines; Homo sapiens, SHP77, read-out: IC50 in cell proliferation assay): 2.22 µM
IC50 (134 cancer cell lines; Homo sapiens, SK-BR-3, read-out: IC50 in cell proliferation assay): 8.31 µM
IC50 (134 cancer cell lines; Homo sapiens, SK-N-AS, read-out: IC50 in cell proliferation assay): 20.8 µM
IC50 (134 cancer cell lines; Homo sapiens, SK-N-FI, read-out: IC50 in cell proliferation assay): > 31.6 µM
IC50 (134 cancer cell lines; Homo sapiens, SK-N-MC, read-out: IC50 in cell proliferation assay): 6.43 µM
IC50 (134 cancer cell lines; Homo sapiens, SK-N-SH, read-out: IC50 in cell proliferation assay): 7.42 µM
IC50 (134 cancer cell lines; Homo sapiens, SNU-5, read-out: IC50 in cell proliferation assay): 9.36 µM
IC50 (134 cancer cell lines; Homo sapiens, SNU-16, read-out: IC50 in cell proliferation assay): 2.03 µM
IC50 (134 cancer cell lines; Homo sapiens, SNU-C2B, read-out: IC50 in cell proliferation assay): 10.5 µM
IC50 (134 cancer cell lines; Homo sapiens, SU-DHL-1, read-out: IC50 in cell proliferation assay): 2.31 µM
IC50 (134 cancer cell lines; Homo sapiens, SU-DHL-6, read-out: IC50 in cell proliferation assay): 3.18 µM
IC50 (134 cancer cell lines; Homo sapiens, SUP-T1, read-out: IC50 in cell proliferation assay): 9.11 µM
IC50 (134 cancer cell lines; Homo sapiens, SW48, read-out: IC50 in cell proliferation assay): 5.58 µM
IC50 (134 cancer cell lines; Homo sapiens, SW480, read-out: IC50 in cell proliferation assay): 25.4 µM
IC50 (134 cancer cell lines; Homo sapiens, SW626, read-out: IC50 in cell proliferation assay): 20.2 µM
IC50 (134 cancer cell lines; Homo sapiens, SW780, read-out: IC50 in cell proliferation assay): 19.3 µM
IC50 (134 cancer cell lines; Homo sapiens, SW837, read-out: IC50 in cell proliferation assay): > 31.6 µM
IC50 (134 cancer cell lines; Homo sapiens, SW872, read-out: IC50 in cell proliferation assay): 6.31 µM
IC50 (134 cancer cell lines; Homo sapiens, SW900, read-out: IC50 in cell proliferation assay): 21.9 µM
IC50 (134 cancer cell lines; Homo sapiens, SW948, read-out: IC50 in cell proliferation assay): 14 µM
IC50 (134 cancer cell lines; Homo sapiens, SW982, read-out: IC50 in cell proliferation assay): 10.8 µM
IC50 (134 cancer cell lines; Homo sapiens, SW-620, read-out: IC50 in cell proliferation assay): > 31.6 µM
IC50 (134 cancer cell lines; Homo sapiens, T98G, read-out: IC50 in cell proliferation assay): 0.372 µM
IC50 (134 cancer cell lines; Homo sapiens, TCC-SUP, read-out: IC50 in cell proliferation assay): 2.7 µM
IC50 (134 cancer cell lines; Homo sapiens, THP-1, read-out: IC50 in cell proliferation assay): 5.42 µM
IC50 (134 cancer cell lines; Homo sapiens, U2OS, read-out: IC50 in cell proliferation assay): 16.3 µM
IC50 (134 cancer cell lines; Homo sapiens, U-87 MG, read-out: IC50 in cell proliferation assay): 22.9 µM
IC50 (134 cancer cell lines; Homo sapiens, U-118-MG, read-out: IC50 in cell proliferation assay): 1.1 µM
IC50 (134 cancer cell lines; Homo sapiens, UMUC3, read-out: IC50 in cell proliferation assay): 5.49 µM
IC50 (134 cancer cell lines; Hs766T, read-out: IC50 in cell proliferation assay): > 31.6 µM
IC50 (134 cancer cell lines; L-82, read-out: IC50 in cell proliferation assay): 8.39 µM
IC50 (134 cancer cell lines; Rh30, read-out: IC50 in cell proliferation assay): 14.9 µM
